# In ChEMBL document CHEMBL3112400, “Cannabinoid agonists showing BuChE inhibition as potential therapeutic agents for Alzheimer's disease” (Eur J Med Chem, 2014):
# Activity calls are given as the source filed them. No cut-off for these calls is given here.
# Target: T1, Cannabinoid receptor (Mus musculus) (UniProt P47746+P47936)
# Assay: Agonist activity at CB1/CB2 receptor in ICR mouse vas deferens assessed as inhibition of electrically induced contractile response at 2.7 X 10^-6 M after 10 mins in presence of AM251 and AM630
# Assay type: protein assay
# T1 sequence (P47746 whole entry, looked up): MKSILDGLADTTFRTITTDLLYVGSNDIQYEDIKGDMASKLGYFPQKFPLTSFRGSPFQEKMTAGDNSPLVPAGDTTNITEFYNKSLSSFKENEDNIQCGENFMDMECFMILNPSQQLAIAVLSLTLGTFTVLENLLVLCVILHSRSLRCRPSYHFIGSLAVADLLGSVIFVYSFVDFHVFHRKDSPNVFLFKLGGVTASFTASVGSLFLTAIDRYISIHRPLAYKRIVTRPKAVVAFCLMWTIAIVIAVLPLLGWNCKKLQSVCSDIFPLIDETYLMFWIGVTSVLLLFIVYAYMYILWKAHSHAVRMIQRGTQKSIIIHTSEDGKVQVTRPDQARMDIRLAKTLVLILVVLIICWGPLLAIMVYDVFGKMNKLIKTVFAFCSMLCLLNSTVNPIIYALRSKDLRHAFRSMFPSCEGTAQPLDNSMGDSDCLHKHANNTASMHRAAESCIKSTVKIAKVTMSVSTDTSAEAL
# T1 sequence (P47936 whole entry, looked up): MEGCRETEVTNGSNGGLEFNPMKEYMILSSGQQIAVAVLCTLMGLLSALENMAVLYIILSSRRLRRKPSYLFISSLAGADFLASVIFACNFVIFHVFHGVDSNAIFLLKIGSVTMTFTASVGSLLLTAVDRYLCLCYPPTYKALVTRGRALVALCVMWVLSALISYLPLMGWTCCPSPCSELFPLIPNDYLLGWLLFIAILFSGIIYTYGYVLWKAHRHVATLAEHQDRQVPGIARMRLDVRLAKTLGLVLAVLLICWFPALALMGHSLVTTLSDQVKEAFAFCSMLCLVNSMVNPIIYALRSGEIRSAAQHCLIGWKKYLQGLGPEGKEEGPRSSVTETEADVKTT
row,Compound,inhibition
1,COc1ccc(COc2nn(CCN(C(C)C)C(C)C)c3ccccc23)cc1,inactive
2,Nc1ccc2c(c1)c(OCc1ccc3ccccc3c1)nn2CCN1CCCCC1,inactive
3,c1ccc2c(COc3nn(CCN4CCCC4)c4ccccc34)cccc2c1,Active
4,c1ccc2c(COc3nn(CCN4CCCCC4)c4ccccc34)cccc2c1,Active
5,c1ccc2cc(COc3nn(CCN4CCCCC4)c4ccccc34)ccc2c1,inactive
6,Nc1ccc2c(c1)c(OCc1cccc3ccccc13)nn2CCN1CCCC1,Active

# Target: T1, Cannabinoid receptor (Mus musculus)
# Assay: Agonist activity at CB1/CB2 receptor in ICR mouse vas deferens assessed as inhibition of electrically induced contractile response at 2.7 X 10^-6 M after 10 mins in presence of AM251
# Assay type: protein assay
row,Compound,inhibition
1,COc1ccc(COc2nn(CCN(C(C)C)C(C)C)c3ccccc23)cc1,inactive
2,Nc1ccc2c(c1)c(OCc1ccc3ccccc3c1)nn2CCN1CCCCC1,inactive
3,c1ccc2c(COc3nn(CCN4CCCC4)c4ccccc34)cccc2c1,Active
4,c1ccc2c(COc3nn(CCN4CCCCC4)c4ccccc34)cccc2c1,Active
5,c1ccc2cc(COc3nn(CCN4CCCCC4)c4ccccc34)ccc2c1,inactive
6,Nc1ccc2c(c1)c(OCc1cccc3ccccc13)nn2CCN1CCCC1,Active

# Target: Cannabinoid receptor 1 (Mus musculus) (UniProt P47746)
# Sequence (P47746 whole entry): as the sequence (P47746 whole entry, looked up) above
# Assay: Agonist activity at CB1 receptor in ICR mouse vas deferens assessed as inhibition of electrically induced contractile response at 10^-7 to 2 X 10^-5 M after 10 mins
row,Compound,inhibition
1,Nc1ccc2c(c1)c(OCc1ccc3ccccc3c1)nn2CCN1CCCCC1,Active
2,c1ccc2c(COc3nn(CCN4CCCC4)c4ccccc34)cccc2c1,Active
3,c1ccc2c(COc3nn(CCN4CCCCC4)c4ccccc34)cccc2c1,Active
4,c1ccc2cc(COc3nn(CCN4CCCCC4)c4ccccc34)ccc2c1,Active
5,Cc1c(C(=O)c2cccc3ccccc23)c2cccc3c2n1[C@H](CN1CCOCC1)CO3,Active
6,Nc1ccc2c(c1)c(OCc1cccc3ccccc13)nn2CCN1CCCC1,Active

# Target: Cannabinoid receptor 1 (Mus musculus) (UniProt P47746)
# Assay: Agonist activity at CB1 receptor in ICR mouse vas deferens assessed as inhibition of electrically induced contractile response after 10 mins
row,Compound,inhibition
1,COc1ccc(COc2nn(CCN(C(C)C)C(C)C)c3ccccc23)cc1,Dose-dependent effect
2,Nc1ccc2c(c1)c(OCc1ccc3ccccc3c1)nn2CCN1CCCCC1,Dose-dependent effect
3,c1ccc2c(COc3nn(CCN4CCCC4)c4ccccc34)cccc2c1,Dose-dependent effect
4,O=[N+]([O-])c1ccc2c(c1)c(OCc1cccc3ccccc13)nn2CCN1CCCC1,Dose-dependent effect
5,c1ccc2c(COc3nn(CCN4CCCCC4)c4ccccc34)cccc2c1,Dose-dependent effect
6,c1ccc2cc(COc3nn(CCN4CCCCC4)c4ccccc34)ccc2c1,Dose-dependent effect
7,Nc1ccc2c(c1)c(OCc1cccc3ccccc13)nn2CCN1CCCC1,Dose-dependent effect

# System: not listed separately
# Assay: Antioxidant activity in phosphate buffer after 15 mins by ORAC-FL method relative to trolox
# Assay type: functional
row,Compound,Ratio
1,COc1ccc(COc2nn(CCN(C(C)C)C(C)C)c3ccccc23)cc1,1
2,Nc1ccc2c(c1)c(OCc1ccc3ccccc3c1)nn2CCN1CCCCC1,0.8
3,c1ccc2c(COc3nn(CCN4CCCC4)c4ccccc34)cccc2c1,0.7
4,c1ccc2c(COc3nn(CCN4CCCCC4)c4ccccc34)cccc2c1,0.5
5,c1ccc2cc(COc3nn(CCN4CCCCC4)c4ccccc34)ccc2c1,0.5
6,Nc1ccc2c(c1)c(OCc1cccc3ccccc13)nn2CCN1CCCC1,1.3

# Target: T2, Acetylcholinesterase (Homo sapiens, UniProt P22303)
# T2 sequence (P22303 whole entry): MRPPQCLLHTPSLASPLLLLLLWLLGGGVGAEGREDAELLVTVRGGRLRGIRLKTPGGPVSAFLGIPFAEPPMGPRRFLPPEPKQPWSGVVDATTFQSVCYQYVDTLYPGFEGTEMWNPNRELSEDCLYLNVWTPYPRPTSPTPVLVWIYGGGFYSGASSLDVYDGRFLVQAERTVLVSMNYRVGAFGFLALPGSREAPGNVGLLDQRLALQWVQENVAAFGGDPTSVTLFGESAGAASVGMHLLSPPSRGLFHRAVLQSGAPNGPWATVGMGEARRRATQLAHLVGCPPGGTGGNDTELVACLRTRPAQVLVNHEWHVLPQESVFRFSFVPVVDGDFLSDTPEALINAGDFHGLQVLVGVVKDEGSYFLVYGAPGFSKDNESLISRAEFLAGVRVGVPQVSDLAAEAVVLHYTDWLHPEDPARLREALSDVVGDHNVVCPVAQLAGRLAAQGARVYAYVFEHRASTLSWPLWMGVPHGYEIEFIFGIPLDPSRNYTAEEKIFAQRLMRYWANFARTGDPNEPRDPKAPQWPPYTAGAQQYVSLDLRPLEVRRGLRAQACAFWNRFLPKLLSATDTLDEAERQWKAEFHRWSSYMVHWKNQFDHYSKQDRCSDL
# Assay: Competitive inhibition of AChE (unknown origin) by Lineweaver-Burk double reciprocal plot analysis
row,Compound,inhibition
1,CC(C)N(CCn1nc(OCc2cccc3ccccc23)c2ccccc21)C(C)C,Active
2,c1ccc2c(COc3nn(CCN4CCCCC4)c4ccccc34)cccc2c1,Active

# Target: T3, Cholinesterase (Homo sapiens, UniProt P06276)
# T3 sequence (P06276 whole entry): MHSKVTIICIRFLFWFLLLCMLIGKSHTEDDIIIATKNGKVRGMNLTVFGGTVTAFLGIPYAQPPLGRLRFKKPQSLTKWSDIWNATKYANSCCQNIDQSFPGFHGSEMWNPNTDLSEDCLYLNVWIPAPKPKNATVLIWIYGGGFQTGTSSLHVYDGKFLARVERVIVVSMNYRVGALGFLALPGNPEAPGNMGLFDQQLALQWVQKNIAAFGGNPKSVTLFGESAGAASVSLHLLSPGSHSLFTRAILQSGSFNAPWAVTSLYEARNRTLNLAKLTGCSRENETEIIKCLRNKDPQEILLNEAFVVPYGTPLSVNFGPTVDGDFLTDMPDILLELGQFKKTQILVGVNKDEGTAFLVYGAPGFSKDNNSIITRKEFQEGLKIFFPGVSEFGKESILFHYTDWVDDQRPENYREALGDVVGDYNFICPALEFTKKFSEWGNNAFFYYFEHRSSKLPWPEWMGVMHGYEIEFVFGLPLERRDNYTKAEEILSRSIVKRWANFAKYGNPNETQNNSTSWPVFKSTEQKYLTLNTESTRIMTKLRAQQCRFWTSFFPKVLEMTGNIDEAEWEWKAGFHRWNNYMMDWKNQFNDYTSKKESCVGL
# Assay: Mixed-type inhibition of BuChE (unknown origin) using butyrylthiocholine as substrate by Lineweaver-Burk double reciprocal plot analysis
row,Compound,Ki [nM]
1,Nc1ccc2c(c1)c(OCc1ccc3ccccc3c1)nn2CCN1CCCCC1,380
2,O=[N+]([O-])c1ccc2c(c1)c(OCc1ccc3ccccc3c1)nn2CCN1CCCCC1,2900

# Target: T3, Cholinesterase
# Assay: Competitive inhibition of BuChE (unknown origin) using butyrylthiocholine as substrate by Lineweaver-Burk double reciprocal plot analysis
row,Compound,Ki [nM]
1,CC(C)N(CCn1nc(OCc2cccc3ccccc23)c2ccccc21)C(C)C,28
2,c1ccc2c(COc3nn(CCN4CCCC4)c4ccccc34)cccc2c1,1200
3,O=[N+]([O-])c1ccc2c(c1)c(OCc1cccc3ccccc13)nn2CCN1CCCC1,2100
4,c1ccc2c(COc3nn(CCN4CCCCC4)c4ccccc34)cccc2c1,220
5,Brc1ccc2c(c1)c(OCc1ccc3ccccc3c1)nn2CCN1CCCCC1,79
6,Nc1ccc2c(c1)c(OCc1cccc3ccccc13)nn2CCN1CCCC1,1000

# Target: T3, Cholinesterase
# Assay: Noncompetitive inhibition of BuChE (unknown origin) using butyrylthiocholine as substrate by Lineweaver-Burk double reciprocal plot analysis
row,Compound,Ki [nM]
1,COc1ccc(COc2nn(CCN(C(C)C)C(C)C)c3ccccc23)cc1,2600
2,c1ccc2cc(COc3nn(CCN4CCCCC4)c4ccccc34)ccc2c1,1190

# Target: T3, Cholinesterase
# Assay: Inhibition of human BuChE using butyrylthiocholine as substrate by Ellman's method
row,Compound,IC50 [nM]
1,COc1ccc(COc2nn(CCN(C(C)C)C(C)C)c3ccccc23)cc1,4800
2,COc1ccc(COc2nn(Cc3ccc(OC)cc3)c3ccccc23)cc1,> 10000
3,c1ccc2c(c1)c(OCC1CCCCC1)nn2CC1CCCCC1,> 10000
4,CC(C)N(CCn1nc(OCc2cccc3ccccc23)c2ccccc21)C(C)C,100
5,O=[N+]([O-])c1ccc2c(c1)c(OCc1ccc3ccccc3c1)nn2CCN1CCCCC1,3600
6,c1ccc2c(COc3nn(CCN4CCCC4)c4ccccc34)cccc2c1,2830
7,O=[N+]([O-])c1ccc2c(c1)c(OCc1cccc3ccccc13)nn2CCN1CCCC1,4500
8,c1ccc2c(COc3nn(CCN4CCCCC4)c4ccccc34)cccc2c1,810
9,Brc1ccc2c(c1)c(OCc1ccc3ccccc3c1)nn2CCN1CCCCC1,190
10,c1ccc2cc(COc3nn(CCN4CCCCC4)c4ccccc34)ccc2c1,970
11,Nc1ccc2c(c1)c(OCc1cccc3ccccc13)nn2CCN1CCCC1,3000

# Target: Cholinesterase (Equus caballus, UniProt P81908)
# Sequence (P81908 whole entry): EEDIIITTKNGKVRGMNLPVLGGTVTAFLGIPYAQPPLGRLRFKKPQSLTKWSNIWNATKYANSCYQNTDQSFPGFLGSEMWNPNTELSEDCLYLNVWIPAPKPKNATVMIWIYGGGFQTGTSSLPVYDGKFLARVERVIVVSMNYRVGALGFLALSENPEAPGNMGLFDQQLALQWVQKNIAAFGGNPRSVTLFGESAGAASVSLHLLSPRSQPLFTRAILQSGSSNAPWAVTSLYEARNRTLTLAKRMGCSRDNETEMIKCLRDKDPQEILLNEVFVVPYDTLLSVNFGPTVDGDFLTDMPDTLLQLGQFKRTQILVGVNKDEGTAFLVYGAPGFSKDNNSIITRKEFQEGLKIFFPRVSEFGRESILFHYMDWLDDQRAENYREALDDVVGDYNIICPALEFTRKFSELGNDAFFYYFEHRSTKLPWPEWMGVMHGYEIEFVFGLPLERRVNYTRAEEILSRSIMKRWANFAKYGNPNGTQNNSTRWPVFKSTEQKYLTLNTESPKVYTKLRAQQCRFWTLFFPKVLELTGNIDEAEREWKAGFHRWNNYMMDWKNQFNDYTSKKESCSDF
# Assay: Inhibition of horse serum BuChE using butyrylthiocholine as substrate by Ellman's method
row,Compound,IC50 [nM]
1,COc1ccc(COc2nn(CCN(C(C)C)C(C)C)c3ccccc23)cc1,2280
2,COc1ccc(COc2nn(Cc3ccc(OC)cc3)c3ccccc23)cc1,> 10000
3,c1ccc2c(c1)c(OCC1CCCCC1)nn2CC1CCCCC1,> 10000
4,Nc1ccc2c(c1)c(OCc1ccc3ccccc3c1)nn2CCN1CCCCC1,1500
5,O=[N+]([O-])c1ccc2c(c1)c(OCc1ccc3ccccc3c1)nn2CCN1CCCCC1,2070
6,c1ccc2c(COc3nn(CCN4CCCC4)c4ccccc34)cccc2c1,6700
7,c1ccc2c(COc3nn(CCN4CCCCC4)c4ccccc34)cccc2c1,910
8,c1ccc2cc(COc3nn(CCN4CCCCC4)c4ccccc34)ccc2c1,1400

# Target: Cannabinoid receptor 2 (Homo sapiens, UniProt P34972)
# Sequence (P34972 whole entry): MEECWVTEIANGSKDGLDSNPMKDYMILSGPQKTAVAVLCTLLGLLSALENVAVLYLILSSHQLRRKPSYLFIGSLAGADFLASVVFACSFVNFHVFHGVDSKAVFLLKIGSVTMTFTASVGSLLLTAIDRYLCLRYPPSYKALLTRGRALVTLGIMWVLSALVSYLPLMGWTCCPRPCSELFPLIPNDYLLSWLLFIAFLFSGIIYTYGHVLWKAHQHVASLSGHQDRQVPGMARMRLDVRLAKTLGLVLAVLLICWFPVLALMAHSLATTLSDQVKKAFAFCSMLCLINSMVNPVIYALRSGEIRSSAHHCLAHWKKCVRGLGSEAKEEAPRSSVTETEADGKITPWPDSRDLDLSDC
# Assay: Displacement of [3H]-CP55940 from human CB2 receptor transfected in HEK-293EBNA cells after 90 mins by luminescence counting analysis
# Assay type: cell-based
row,Compound,Ki [nM]
1,COc1ccc(COc2nn(CCN(C(C)C)C(C)C)c3ccccc23)cc1,7700
2,COc1ccc(COc2nn(Cc3ccc(OC)cc3)c3ccccc23)cc1,900
3,c1ccc2c(c1)c(OCC1CCCCC1)nn2CC1CCCCC1,1300
4,Nc1ccc2c(c1)c(OCc1ccc3ccccc3c1)nn2CCN1CCCCC1,2000
5,CC(C)N(CCn1nc(OCc2cccc3ccccc23)c2ccccc21)C(C)C,5400
6,O=[N+]([O-])c1ccc2c(c1)c(OCc1ccc3ccccc3c1)nn2CCN1CCCCC1,500
7,c1ccc2c(COc3nn(CCN4CCCC4)c4ccccc34)cccc2c1,400
8,O=[N+]([O-])c1ccc2c(c1)c(OCc1cccc3ccccc13)nn2CCN1CCCC1,130
9,c1ccc2c(COc3nn(CCN4CCCCC4)c4ccccc34)cccc2c1,240
10,Brc1ccc2c(c1)c(OCc1ccc3ccccc3c1)nn2CCN1CCCCC1,1800
11,c1ccc2cc(COc3nn(CCN4CCCCC4)c4ccccc34)ccc2c1,2000
12,Nc1ccc2c(c1)c(OCc1cccc3ccccc13)nn2CCN1CCCC1,5000

# Target: T2, Acetylcholinesterase
# Assay: Inhibition of human AChE using acetylthiocholine as substrate by Ellman's method
row,Compound,IC50 [nM]
1,COc1ccc(COc2nn(CCN(C(C)C)C(C)C)c3ccccc23)cc1,> 10000
2,COc1ccc(COc2nn(Cc3ccc(OC)cc3)c3ccccc23)cc1,> 10000
3,c1ccc2c(c1)c(OCC1CCCCC1)nn2CC1CCCCC1,7100
4,Nc1ccc2c(c1)c(OCc1ccc3ccccc3c1)nn2CCN1CCCCC1,> 10000
5,CC(C)N(CCn1nc(OCc2cccc3ccccc23)c2ccccc21)C(C)C,> 10000
6,O=[N+]([O-])c1ccc2c(c1)c(OCc1ccc3ccccc3c1)nn2CCN1CCCCC1,> 10000
7,c1ccc2c(COc3nn(CCN4CCCC4)c4ccccc34)cccc2c1,> 10000
8,O=[N+]([O-])c1ccc2c(c1)c(OCc1cccc3ccccc13)nn2CCN1CCCC1,> 25000
9,c1ccc2c(COc3nn(CCN4CCCCC4)c4ccccc34)cccc2c1,> 10000
10,Brc1ccc2c(c1)c(OCc1ccc3ccccc3c1)nn2CCN1CCCCC1,> 10000
11,c1ccc2cc(COc3nn(CCN4CCCCC4)c4ccccc34)ccc2c1,> 10000
12,Nc1ccc2c(c1)c(OCc1cccc3ccccc13)nn2CCN1CCCC1,> 25000

# Target: Cannabinoid receptor 1 (Homo sapiens, UniProt P21554)
# Sequence (P21554 whole entry): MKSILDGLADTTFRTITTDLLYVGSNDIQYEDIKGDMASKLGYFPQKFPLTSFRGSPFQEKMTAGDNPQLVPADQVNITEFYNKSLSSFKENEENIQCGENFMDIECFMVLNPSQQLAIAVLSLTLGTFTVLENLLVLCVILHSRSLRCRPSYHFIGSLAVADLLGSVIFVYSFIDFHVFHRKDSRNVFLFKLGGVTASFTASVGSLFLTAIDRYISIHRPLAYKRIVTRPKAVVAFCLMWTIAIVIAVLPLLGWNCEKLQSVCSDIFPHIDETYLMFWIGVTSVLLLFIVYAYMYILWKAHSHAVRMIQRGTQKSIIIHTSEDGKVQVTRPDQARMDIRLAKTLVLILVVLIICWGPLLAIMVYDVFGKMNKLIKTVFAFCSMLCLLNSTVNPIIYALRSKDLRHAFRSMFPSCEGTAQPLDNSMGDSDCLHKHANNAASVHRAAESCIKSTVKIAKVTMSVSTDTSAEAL
# Assay: Displacement of [3H]-CP55940 from human CB1 receptor transfected in HEK-293EBNA cells after 90 mins by luminescence counting analysis
# Assay type: cell-based
row,Compound,Ki [nM]
1,COc1ccc(COc2nn(CCN(C(C)C)C(C)C)c3ccccc23)cc1,> 40000
2,COc1ccc(COc2nn(Cc3ccc(OC)cc3)c3ccccc23)cc1,2400
3,c1ccc2c(c1)c(OCC1CCCCC1)nn2CC1CCCCC1,200
4,Nc1ccc2c(c1)c(OCc1ccc3ccccc3c1)nn2CCN1CCCCC1,> 40000
5,CC(C)N(CCn1nc(OCc2cccc3ccccc23)c2ccccc21)C(C)C,> 40000
6,O=[N+]([O-])c1ccc2c(c1)c(OCc1ccc3ccccc3c1)nn2CCN1CCCCC1,1300
7,c1ccc2c(COc3nn(CCN4CCCC4)c4ccccc34)cccc2c1,560
8,O=[N+]([O-])c1ccc2c(c1)c(OCc1cccc3ccccc13)nn2CCN1CCCC1,600
9,c1ccc2c(COc3nn(CCN4CCCCC4)c4ccccc34)cccc2c1,3000
10,Brc1ccc2c(c1)c(OCc1ccc3ccccc3c1)nn2CCN1CCCCC1,1700
11,c1ccc2cc(COc3nn(CCN4CCCCC4)c4ccccc34)ccc2c1,1400
12,Nc1ccc2c(c1)c(OCc1cccc3ccccc13)nn2CCN1CCCC1,11000
